Broadly, the IC50 is the concentration that gives 50% inhibition.

Series [1] addresses T1, Vasoactive intestinal polypeptide receptor 1 (Homo sapiens, UniProt P32241).
T1 sequence (P32241 whole entry): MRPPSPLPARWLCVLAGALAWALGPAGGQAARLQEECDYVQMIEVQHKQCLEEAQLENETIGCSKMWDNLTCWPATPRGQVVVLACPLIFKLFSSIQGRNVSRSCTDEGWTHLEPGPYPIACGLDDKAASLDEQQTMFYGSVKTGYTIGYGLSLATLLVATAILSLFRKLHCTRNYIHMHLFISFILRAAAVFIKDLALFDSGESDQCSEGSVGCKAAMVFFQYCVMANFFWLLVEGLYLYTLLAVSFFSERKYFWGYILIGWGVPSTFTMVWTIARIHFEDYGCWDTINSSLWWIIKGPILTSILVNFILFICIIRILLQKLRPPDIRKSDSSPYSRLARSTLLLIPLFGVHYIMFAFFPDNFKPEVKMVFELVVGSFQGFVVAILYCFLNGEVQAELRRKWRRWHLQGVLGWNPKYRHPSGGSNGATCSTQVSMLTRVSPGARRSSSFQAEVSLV
The series is classed as cell membranes, Membrane. As to conditions: ht-29.

A further series deals with Cannabinoid receptor 1 (Homo sapiens, UniProt P21554). The format is cell membranes, Membrane. As to conditions: chem-1.
In series [2] the target is T2, Cholecystokinin receptor type A (Homo sapiens, UniProt P32238). Also: in other assays of this panel Not Active means under 50% inhibition at 10 µM.
T2 sequence (P32238 whole entry): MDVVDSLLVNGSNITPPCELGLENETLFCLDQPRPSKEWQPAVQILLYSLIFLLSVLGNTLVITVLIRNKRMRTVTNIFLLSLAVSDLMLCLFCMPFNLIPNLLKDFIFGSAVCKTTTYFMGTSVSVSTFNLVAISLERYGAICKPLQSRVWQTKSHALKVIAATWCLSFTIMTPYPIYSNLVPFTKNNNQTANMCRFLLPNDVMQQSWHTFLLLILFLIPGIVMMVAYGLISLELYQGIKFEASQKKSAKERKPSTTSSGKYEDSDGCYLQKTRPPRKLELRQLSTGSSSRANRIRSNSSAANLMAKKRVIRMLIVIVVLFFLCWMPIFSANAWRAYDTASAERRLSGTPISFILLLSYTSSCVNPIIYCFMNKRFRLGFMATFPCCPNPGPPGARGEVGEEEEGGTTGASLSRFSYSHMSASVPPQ
The series is classed as cell membranes, Membrane. Conditions: 1321-n1.

A further series concerns the target Histamine H2 receptor (Homo sapiens, UniProt P25021). The series is classed as cell membranes, CHO-K1, Membrane. Conditions: cho-k1. Also: in other assays of this panel Not Active means under 50% inhibition at 10 µM.
Series [3] in a line: DRUGMATRIX: Nicotinic Acetylcholine radioligand binding (ligand: [125I] Epibatidine). The series is classed as cell membranes, Membrane. As to conditions: imr-32; Not Active = under 50% inhibition at 10 µM.
For series [4], the target named is Kappa-type opioid receptor (Homo sapiens, UniProt P41145). The series is described as follows: DRUGMATRIX: Opiate kappa (OP2, KOP) radioligand binding (ligand: [3H] Diprenorphine). The series is classed as cell membranes, HEK293, Membrane. Conditions: hek293; Not Active = under 50% inhibition at 10 µM.
A short description of series [5]: DRUGMATRIX: Phosphodiesterase PDE3 enzyme inhibition (substrate: [3H]cAMP + cAMP). The series is classed as tissue-based, Homo sapiens. As to conditions: platelet, Not Active = under 50% inhibition at 10 µM.
Series [6] addresses cGMP-specific 3',5'-cyclic phosphodiesterase (Homo sapiens, UniProt O76074). The series can be described thus: DRUGMATRIX: Phosphodiesterase PDE5 enzyme inhibition (substrate: [3H]cGMP + cGMP). As to conditions: platelet; Not Active = under 50% inhibition at 10 µM. The format is tissue-based.
Another series has as its target Cytochrome P450 2E1 (Homo sapiens, UniProt P05181). As to conditions: bti-tn-5b1-4. Also: in other assays of this panel Not Active means under 50% inhibition at 10 µM.

Cannabinoid receptor 1, sequence (P21554 whole entry): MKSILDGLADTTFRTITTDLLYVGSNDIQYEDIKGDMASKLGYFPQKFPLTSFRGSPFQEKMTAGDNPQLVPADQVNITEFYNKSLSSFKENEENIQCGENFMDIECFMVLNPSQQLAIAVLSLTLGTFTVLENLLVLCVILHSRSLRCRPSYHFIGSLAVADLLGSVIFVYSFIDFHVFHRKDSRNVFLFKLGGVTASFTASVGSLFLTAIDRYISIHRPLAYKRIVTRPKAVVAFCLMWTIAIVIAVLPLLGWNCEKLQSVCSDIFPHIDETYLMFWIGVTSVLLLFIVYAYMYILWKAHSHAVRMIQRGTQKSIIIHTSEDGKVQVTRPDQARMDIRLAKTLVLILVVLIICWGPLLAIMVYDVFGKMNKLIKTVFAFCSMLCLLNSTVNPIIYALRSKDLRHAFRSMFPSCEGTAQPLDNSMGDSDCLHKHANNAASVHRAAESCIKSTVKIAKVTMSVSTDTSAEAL
Cytochrome P450 2E1, sequence (P05181 whole entry): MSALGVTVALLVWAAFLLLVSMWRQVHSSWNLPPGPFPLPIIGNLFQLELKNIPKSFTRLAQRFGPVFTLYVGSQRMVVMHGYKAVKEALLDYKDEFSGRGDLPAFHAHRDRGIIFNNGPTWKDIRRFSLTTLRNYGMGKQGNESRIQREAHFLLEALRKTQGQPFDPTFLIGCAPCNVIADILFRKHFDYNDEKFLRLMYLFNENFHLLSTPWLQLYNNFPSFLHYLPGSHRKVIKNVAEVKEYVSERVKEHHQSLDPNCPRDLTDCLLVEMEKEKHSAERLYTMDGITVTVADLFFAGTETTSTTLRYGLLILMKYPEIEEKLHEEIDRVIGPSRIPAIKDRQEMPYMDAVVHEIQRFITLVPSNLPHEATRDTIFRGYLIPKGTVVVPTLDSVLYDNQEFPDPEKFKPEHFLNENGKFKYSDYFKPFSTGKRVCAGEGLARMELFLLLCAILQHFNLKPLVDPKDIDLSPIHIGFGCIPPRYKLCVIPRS
Kappa-type opioid receptor, sequence (P41145 whole entry): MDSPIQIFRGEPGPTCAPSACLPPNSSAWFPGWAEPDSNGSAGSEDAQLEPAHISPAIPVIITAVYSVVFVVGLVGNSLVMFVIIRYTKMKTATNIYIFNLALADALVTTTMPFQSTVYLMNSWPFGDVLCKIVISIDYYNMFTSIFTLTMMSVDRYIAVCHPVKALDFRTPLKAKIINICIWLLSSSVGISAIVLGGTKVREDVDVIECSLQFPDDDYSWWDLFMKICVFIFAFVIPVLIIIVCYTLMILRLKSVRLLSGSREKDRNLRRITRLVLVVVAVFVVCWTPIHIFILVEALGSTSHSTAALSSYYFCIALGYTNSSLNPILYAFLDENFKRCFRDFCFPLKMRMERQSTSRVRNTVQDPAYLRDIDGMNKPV
Histamine H2 receptor, sequence (P25021 whole entry): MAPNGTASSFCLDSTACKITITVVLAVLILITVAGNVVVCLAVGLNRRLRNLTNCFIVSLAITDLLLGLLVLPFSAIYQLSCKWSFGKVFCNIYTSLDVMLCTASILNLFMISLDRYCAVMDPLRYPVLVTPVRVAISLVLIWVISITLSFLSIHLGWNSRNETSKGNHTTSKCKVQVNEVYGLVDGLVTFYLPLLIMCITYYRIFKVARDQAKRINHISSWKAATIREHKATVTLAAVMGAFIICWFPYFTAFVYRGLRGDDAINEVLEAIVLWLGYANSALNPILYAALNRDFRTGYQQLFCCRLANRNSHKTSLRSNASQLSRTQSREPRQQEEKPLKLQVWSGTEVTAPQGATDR

`N[C@@H](Cc1ccc(F)cc1)C(=O)O`: the IC50 entry (in [1]; on Cannabinoid receptor 1; in series [2]; against Histamine H2 receptor; in [3]; in series [4]) was “Not Active” in each case. Besides, the IC50 entry in series [5] and in series [6] was “Not Active” each time. Besides, the Ki result in series [3] and in series [5] was “Not Active” in each case.

In the case of `Clc1cc2c(cc1Cl)Oc1cc(Cl)c(Cl)cc1O2` [2,3,7,8-TETRACHLORODIBENZO-P-DIOXIN], the IC50 entry (in series [1]; against Cannabinoid receptor 1; in series [2]; against Histamine H2 receptor; in [3]; in series [5]) was “Not Active” in each case. For the same compound, the IC50 entry (in series [6]; against Cytochrome P450 2E1) was “Not Active” in each case. The Ki entry (in series [3]; in [5]; on Cytochrome P450 2E1) was “Not Active” throughout.

For the compound `C[C@@H]1CC[C@H]2[C@@H](C)C(=O)O[C@@H]3O[C@@]4(C)CC[C@@H]1[C@]32OO4` [ARTEMISININ], the 50% inhibitory concentration (IC50) result (in [1]; against Cannabinoid receptor 1; in series [2]; on Histamine H2 receptor; in [3]; in series [4]) was “Not Active” throughout. Further, the IC50 entry in [5] and in series [6] was “Not Active” each time. The Ki result in series [3] and in series [5] was “Not Active” each time.

With `CC(C)C[C@H]1C(=O)N2CCC[C@H]2[C@]2(O)O[C@](NC(=O)[C@@H]3C=C4c5cccc6[nH]c(Br)c(c56)C[C@H]4N(C)C3)(C(C)C)C(=O)N12` [BROMOCRIPTINE], the IC50 entry (in series [1]; against Cannabinoid receptor 1; in [2]; against Histamine H2 receptor; in series [3]; in [5]) was “Not Active” each time. Besides, the IC50 entry (in [6]; against Cytochrome P450 2E1) was “Not Active” in each case. The Ki result (in series [3]; in series [5]; at Cytochrome P450 2E1) was “Not Active” each time.

As for `CCC[C@@H]1C[C@@H](C(=O)N[C@@H]([C@H]2O[C@H](SC)[C@H](O)[C@@H](O)[C@H]2O)[C@H](C)Cl)N(C)C1` [CLINDAMYCIN], the IC50 result (in series [1]; against Cannabinoid receptor 1; in series [2]; at Histamine H2 receptor; in [3]; in series [4]) was “Not Active” each time. Further, the IC50 entry in series [5] and in series [6] was “Not Active” throughout. The Ki entry in series [3] and in [5] was “Not Active” in each case.

For `Nc1nc(N)nc(NC2CC2)n1` [CYROMAZINE], the IC50 entry (in [1]; on Cannabinoid receptor 1; in series [2]; against Histamine H2 receptor; in [3]; in [5]) was “Not Active” throughout. Besides, the IC50 result (in series [6]; on Cytochrome P450 2E1) was “Not Active” each time. Also, the Ki result (in series [3]; in series [5]; on Cytochrome P450 2E1) was “Not Active” each time.

With `CN1C[C@H](C(=O)N[C@]2(C)O[C@@]3(O)[C@@H]4CCCN4C(=O)[C@H](Cc4ccccc4)N3C2=O)C[C@@H]2c3cccc4[nH]cc(c34)C[C@H]21` [DIHYDROERGOTAMINE], the IC50 entry (in series [1]; at Cannabinoid receptor 1; in [2]; at Histamine H2 receptor; in series [3]; in [5]) was “Not Active” each time. Further, the IC50 entry (in [6]; against Cytochrome P450 2E1) was “Not Active” in each case. Moreover, the Ki entry (in series [3]; in series [5]; on Cytochrome P450 2E1) was “Not Active” each time.

For the compound `Cc1cn[nH]c1` [FOMEPIZOLE], the IC50 result (in series [1]; against Cannabinoid receptor 1; in series [2]; at Histamine H2 receptor; in series [3]; in series [4]) was “Not Active” in each case. Besides, the 50% inhibitory concentration (IC50) entry in series [5] and in series [6] was “Not Active” throughout. The Ki result in [3] and in series [5] was “Not Active” throughout.

Regarding `Cc1cnc(C(=O)NCCc2ccc(S(=O)(=O)NC(=O)NC3CCCCC3)cc2)cn1` [GLIPIZIDE], the IC50 result (in series [1]; on Cannabinoid receptor 1; in [2]; against Histamine H2 receptor; in series [3]; in series [4]) was “Not Active” each time. Moreover, the IC50 result in [5] and in series [6] was “Not Active” in each case. The Ki entry in series [3] and in [5] was “Not Active” each time.

For `COc1ccccc1OCC(O)CO` (configuration not stated) [GUAIFENESIN], the IC50 entry (in [1]; against Cannabinoid receptor 1; in series [2]; on Histamine H2 receptor; in [3]; in [4]) was “Not Active” each time. Also, the IC50 result in series [5] and in series [6] was “Not Active” throughout. The Ki entry in series [3] and in series [5] was “Not Active” in each case.

With `COc1ccc(Cc2nccc3cc(OC)c(OC)cc23)cc1OC` [PAPAVERINE], the IC50 result in [1] is “Not Active”; on Cannabinoid receptor 1, “Not Active”; in series [2], “Not Active”; at Histamine H2 receptor, “Not Active”; in series [3] it was “Not Active”; in series [5] (read-out: IC50), 665 nM. The IC50 result (in [6]; on Cytochrome P450 2E1) was “Not Active” each time. Further, the Ki result (in series [3]; on Cytochrome P450 2E1) was “Not Active” throughout.

In the case of COBALT(II) ACETYLACETONATE, the IC50 entry (in [1]; against Cannabinoid receptor 1; in series [2]; against Histamine H2 receptor; in [3]; in series [5]) was “Not Active” each time. In addition, the IC50 entry (in series [6]; against Cytochrome P450 2E1) was “Not Active” in each case. Besides, the Ki entry (in series [1]; at Cannabinoid receptor 1; in series [2]; at Histamine H2 receptor; in series [3]; in [5]) was “Not Active” in each case. Besides, the Ki result (in [6]; on Cytochrome P450 2E1) was “Not Active” in each case.

On to INSULIN HUMAN, for which the IC50 entry (in series [1]; at Cannabinoid receptor 1; in [2]; on Histamine H2 receptor; in series [3]; in [5]) was “Not Active” each time. In addition, the IC50 entry (in series [6]; at Cytochrome P450 2E1) was “Not Active” in each case. Moreover, the Ki entry (in series [1]; on Cannabinoid receptor 1; in series [2]; on Histamine H2 receptor; in series [3]; in [5]) was “Not Active” each time. The Ki entry (in series [6]; at Cytochrome P450 2E1) was “Not Active” each time.

For POLYVINYL ALCOHOL, the IC50 result (in series [1]; on Cannabinoid receptor 1; in series [2]; at Histamine H2 receptor; in [3]; in [5]) was “Not Active” each time. The IC50 result (in [6]; against Cytochrome P450 2E1) was “Not Active” throughout. Besides, the Ki entry (in series [1]; on Cannabinoid receptor 1; in series [2]; on Histamine H2 receptor; in series [3]; in series [5]) was “Not Active” throughout. Further, the Ki result (in series [6]; at Cytochrome P450 2E1) was “Not Active” throughout.

The record behind these values is ChEMBL document CHEMBL1909046, “DrugMatrix in vitro pharmacology data”.
